This is an account of results in patent US20090209525A1, “ENABLING METHODS TO IDENTIFY ALLOSTERIC MODULATORS OF RECEPTOR ACTIVITY” (priority 2006, published 2009).

Substitutions are numbered along the chain they refer to. Several values for one entry are separate records, joined by “and”; a condition that tells them apart may be missing. Identical values can stand only once. Like-named read-outs stand apart in the source and are kept apart here.

The target in test [1] is T1, rat M1 W101A receptor (Rattus norvegicus, UniProt P08482, W101A).
T1 construct: expressed in transfected cells
T1 sequence (P08482 1-460 W101A): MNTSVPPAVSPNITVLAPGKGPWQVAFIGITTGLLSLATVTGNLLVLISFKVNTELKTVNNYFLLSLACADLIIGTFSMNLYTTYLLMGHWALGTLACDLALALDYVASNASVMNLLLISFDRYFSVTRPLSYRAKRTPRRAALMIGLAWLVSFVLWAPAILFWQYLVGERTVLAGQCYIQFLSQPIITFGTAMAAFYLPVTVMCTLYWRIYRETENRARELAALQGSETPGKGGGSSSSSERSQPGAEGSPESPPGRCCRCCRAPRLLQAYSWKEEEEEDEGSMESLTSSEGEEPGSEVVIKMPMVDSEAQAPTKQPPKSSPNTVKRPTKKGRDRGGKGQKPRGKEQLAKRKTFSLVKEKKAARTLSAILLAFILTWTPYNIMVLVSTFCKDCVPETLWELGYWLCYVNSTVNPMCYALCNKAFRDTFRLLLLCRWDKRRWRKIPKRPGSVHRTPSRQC
The test can be described thus: R-SAT functional assay, W101A mutant. It is filed as cell-based. As to conditions: for increase in potency relative to wild-type: R-SAT; for Shift: EC50 W101A divided by EC50 wild-type; for Eff (%): maximum response, normalized; for EC50: read-out: pEC50 (converted). As for the experimental part: Cells are co-transfected for 18 h with DMEM containing 0.08 micrograms/ml of an expression vector for the expression of the mutant receptor and 0.3 micrograms/ml pSI-Bgal (Promega, Madison Wis.), and 0.5% v/v Polyfect (Qiagen, Valencia Calif.), as recommended by the manufacturer. On day three, the medium is replaced with DMEM containing 1% PSG, 0.5% calf serum, 2% cyto-sf3 (Kemp Biotechnologies, Frederick, Md.), and varying concentrations of the compounds to be tested. Cells are grown in a humidified atmosphere with 5% ambient CO2 for 5 days. The media is removed from the plates, and beta-galactosidase activity is measured by the addition of o-nitrophenyl -d-galactopyranoside in phosphate-buffered saline with 5% Nonidet P-40. […] The following equation is fitted to the data using GraphPad Prism software (San Diego, Calif.):
NIH-3T3 cells were grown in 96-well tissue culture plates to 70 to 80% confluence in Dulbecco's modified essential media (DMEM) supplemented with 100 units/ml penicillin, 100 micrograms/ml streptomycin, 0.3 mg/ml L-glutamine (1% PSG, GIBCO) and 10% calf serum (Sigma-Aldrich). Cells were transfected for 18 h with DMEM containing 0.08 micrograms/ml receptor DNA and 0.3 micrograms/ml pSI-Bgal (Promega, Madison Wis.), 0.5% v/v Polyfect (Qiagen, Valencia Calif.). Medium was replaced with DMEM containing 1% PSG, 0.5% calf serum, 2% cyto-sf3 (Kemp Biotechnologies, Frederick, Md.), and varying concentrations of ligand. […] Cells were grown in a humidified atmosphere with 5% ambient CO2 for 5 days. Medium was removed from the plates, and beta-galactosidase activity was measured by the addition of o-nitrophenyl -d-galactopyranoside in phosphate-buffered saline with 5% Nonidet P-40.
Receptor Selection and Amplification (R-SAT™) Assays: R-SAT™ functional assays were carried out as follows. NIH-3T3 cells were grown in 96-well tissue culture plates to 70 to 80% confluence in Dulbecco's modified essential media (DMEM) supplemented with 100 units/ml penicillin, 100 micrograms/ml streptomycin, 0.3 mg/ml L-glutamine (1% PSG, GIBCO) and 10% calf serum (Sigma-Aldrich). Cells were transfected for 18 h with DMEM containing 0.08 micrograms/ml receptor DNA and 0.3 micrograms/ml pSI-Bgal (Promega, Madison Wis.), 0.5% v/v Polyfect (Qiagen, Valencia Calif.). The transfected cells were frozen away. Cells were thawed and added to 96 well plates with DMEM containing 1% PSG, 0.5% calf serum, 2% cyto-sf3 (Kemp Biotechnologies, Frederick, Md.), and varying concentrations of ligand.
In an effort to further characterize monoamine modulators, we used a panel of mutant muscarininc M1 receptors to analyze the activity and potency of orthosteric modulators and various allosteric modulators at those receptors.

Test [2] addresses T1, rat M1 W101A receptor. In words: ^3H-NMS radioligand binding, W101A. To be noted: for Shift: Ki W101A divided by Ki wild-type; for increase in binding affinity relative to wild-type: radioligand binding, W101A. Here is the method: Briefly, cell homogenates are prepared from cells transiently or stably expressing wild type or mutant receptors. For transiently transfected cells, HEK cells are transfected with receptor of interest and cells harvested 48 hours post transfection. Cells expressing the receptor, stably or transiently, are harvested using phosphate buffered saline containing 5 mM EDTA, cells centrifuged at low speed and pellet re-suspended in binding buffer. Cell suspension is polytroned and centrifuged at 15,000×g. The pellet is resuspended in binding buffer and centrifugation repeated two more times. The washed cell homogenates are used for the competition binding assays. Competition binding assays are carried out in the presence of fixed amount of cell homogenate, fixed concentration of radioactively labeled orthosteric or allosteric ligand and varying concentrations of the cal under study using appropriate buffer. Incubations are carried out at room temperature for 2 hours. Incubations are terminated by filtration onto GF/B filters using Packard cell harvester followed by 3 washes with ice-cold buffer. Radioactivity retained on the filters is quantitated using Packard Top Count using Microscint 20 scintillation fluid. […] The membranes prepared above are incubated with a labeled ligand in 25 mM sodium phosphate, 5 mM magnesium chloride, 0.01% BSA two hours at room temperature. The binding reaction is stopped by rapid filtration onto GF/B filters. […] The pKd values (pKd=−log Kd) of the labeled ligand are calculated.
Radioligand binding assays were carried out in 25 mM sodium phosphate, 5 mM magnesium chloride, 0.01% BSA. Incubations were for two hours at room temperature, and reactions were stopped by rapid filtration onto GF/B filters.

For test [3], the target named is T2, CHO cell membranes expressing the muscarinic M1 receptor (Homo sapiens, UniProt P11229).
T2 construct: expressed in transfected cells; host or cells: CHO
T2 sequence (P11229 1-460): T1 sequence (P08482 1-460 W101A) with V5A, A101W, S254T, S309P, K320R, G337A, V413I
In words: Equilibrium ^3H-NMS binding at 2 nM and 10 nM ^3H-NMS.

Where [4] appears, read: Table 4, M1 W101A, maximum response relative to xanomeline.
The mark [5] stands for this setting: Table 10, M1 W101A, maximum response relative to AC-42.
The mark [6] stands for this setting: ^3H-NMS 2 nM and 10 nM, result in words.

As to `CCCCC1CCN(CCCC(=O)c2ccccc2C)CC1` [AC-42, 4-n-butyl-1-[4-(2-methylphenyl)-4-oxo-1-butyl] piperidine hydrogen chloride], on rat M1 W101A receptor [1] (W101A), the “increase in potency relative to wild-type” value turned out to be 50 fold. In addition, the Shift at rat M1 W101A receptor [1] (Table 3) was found to be 0.02; on rat M1 W101A receptor [2] it was 0.01. The “Eff (%)” value on rat M1 W101A receptor [1] (Table 3, W101A) is on record as 95 ± 10%. Also, the EC50 at rat M1 W101A receptor [1] (Table 3, W101A) was 3.16 nM; at rat M1 W101A receptor [1] (Table 4, M1 W101A) it was 7.94 nM; at rat M1 W101A receptor [1] (Table 10, M1 W101A), 7.94 nM. Moreover, the “% Eff” value at rat M1 W101A receptor [1] (setting [4]) is on record as 97%; on rat M1 W101A receptor [1] (setting [5]), 111%. For the same molecule, the half-maximal inhibitory concentration (IC50) on rat M1 W101A receptor [2] was 50.1 nM. Further, the “increase in binding affinity relative to wild-type” value on rat M1 W101A receptor [2] turned out to be 50 fold. Moreover, the “displacement of ^3H-NMS” value in test [3] is reported as “complete displacement of ^3H-NMS was not observed”.
As to `CCCCC1CCN(CCCN2C(=O)COc3cc(F)ccc32)CC1` [AC-260584, 4-[3-(4-Butyl-piperidin-1-yl)-propyl]-7-fluoro-4H-benzo [1,4]oxazin-3-one], the “increase in potency relative to wild-type” value at rat M1 W101A receptor [1] (W101A) is 33 fold and 30 fold. For the same molecule, the Shift on rat M1 W101A receptor [1] (Table 3) turned out to be 0.03; at rat M1 W101A receptor [2] it was 0.003. In addition, the “Eff (%)” value on rat M1 W101A receptor [1] (Table 3, W101A) was determined as 100 ± 8%. For the same molecule, the EC50 was 0.398 nM at rat M1 W101A receptor [1] (Table 3, W101A); 0.2 nM at rat M1 W101A receptor [1] (Table 4, M1 W101A); 3.16 nM at rat M1 W101A receptor [1] (Table 10, M1 W101A). The “% Eff” value amounted to 98% on rat M1 W101A receptor [1] (setting [4]) and 140% at rat M1 W101A receptor [1] (setting [5]). Besides, the half-inhibitory concentration (IC50) on rat M1 W101A receptor [2] is 3.16 nM. The “increase in binding affinity relative to wild-type” value on rat M1 W101A receptor [2] is listed as “over 100 fold”. Also, the “displacement of ^3H-NMS” value in test [3] (setting [6]) is “completely displace”.
Take `Clc1ccc2c(c1)N=C(N1CCNCC1)c1ccccc1N2` [NDMC, 8-chloro-11-(1-piperazinyl)-5H-dibenzo [b,e] [1,4] diazepine]: the figures for the Shift at rat M1 W101A receptor [1] (Table 3) and at rat M1 W101A receptor [2] were 5 and 1, respectively. On rat M1 W101A receptor [1] (Table 3, W101A), the “Eff (%)” value was 88 ± 12%. Besides, the EC50 at rat M1 W101A receptor [1] (Table 3, W101A) is 200 nM; on rat M1 W101A receptor [1] (Table 4, M1 W101A), 39.8 nM; on rat M1 W101A receptor [1] (Table 10, M1 W101A), 100 nM. In addition, the “% Eff” value at rat M1 W101A receptor [1] (setting [4]) is reported as 72%; on rat M1 W101A receptor [1] (setting [5]) it was 93%. Moreover, the concentration for half-maximal inhibition (IC50) at rat M1 W101A receptor [2] is 126 nM. In addition, the “displacement of ^3H-NMS” value in test [3] (setting [6]) is “completely displace”.

The term IC50 denotes the concentration that inhibits the measured activity by half.
